Laboratory results reported in ChEMBL document CHEMBL3611990, “Identification of Purines and 7-Deazapurines as Potent and Selective Type I Inhibitors of Troponin I-Interacting Kinase (TNNI3K)” (J Med Chem, 2015).
In brackets after ≈: the same amount, converted by molar mass.

How the values were obtained:
[1] = target: Serine/threonine-protein kinase B-raf (Homo sapiens, UniProt P15056, V600E); assay: Inhibition of His6-tagged full length BRAF V600E mutant (2 to 766 residues) (unknown origin) expressed in Baculovirus expression system by BRAMA method
Chain of Serine/threonine-protein kinase B-raf (P15056 2-766 V600E limits assumed): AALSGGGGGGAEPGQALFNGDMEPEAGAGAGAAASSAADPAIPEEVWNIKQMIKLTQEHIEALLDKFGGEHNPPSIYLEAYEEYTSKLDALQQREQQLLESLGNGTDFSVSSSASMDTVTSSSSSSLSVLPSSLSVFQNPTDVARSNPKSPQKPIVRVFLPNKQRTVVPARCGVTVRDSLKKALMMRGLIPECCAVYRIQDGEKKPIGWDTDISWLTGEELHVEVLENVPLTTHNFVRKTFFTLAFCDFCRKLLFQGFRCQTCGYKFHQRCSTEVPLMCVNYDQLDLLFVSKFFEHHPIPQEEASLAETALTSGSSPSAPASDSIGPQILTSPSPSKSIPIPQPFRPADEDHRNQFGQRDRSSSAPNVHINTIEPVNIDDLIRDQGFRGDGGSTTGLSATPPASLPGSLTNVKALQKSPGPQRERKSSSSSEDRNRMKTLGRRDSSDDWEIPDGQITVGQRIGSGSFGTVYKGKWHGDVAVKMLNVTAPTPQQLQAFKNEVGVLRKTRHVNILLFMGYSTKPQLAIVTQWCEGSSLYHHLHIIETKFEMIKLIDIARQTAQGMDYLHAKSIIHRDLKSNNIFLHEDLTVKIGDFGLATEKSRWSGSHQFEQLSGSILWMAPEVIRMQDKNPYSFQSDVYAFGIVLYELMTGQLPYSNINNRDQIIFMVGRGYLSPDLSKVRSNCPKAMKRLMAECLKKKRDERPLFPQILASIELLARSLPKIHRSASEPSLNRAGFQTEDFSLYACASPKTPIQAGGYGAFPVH

Rattus norvegicus = assay: Dose normalized AUC in po dosed Sprague-Dawley rat by LC/MS/MS analysis; assay type: ADME, organism-based; conditions: in vivo
[2] = target: T1, Serine/threonine-protein kinase TNNI3K (Homo sapiens, UniProt Q59H18); assay: Displacement of 5-({[2-({[3-({4-[(5-hydroxy-2-methylphenyl)amino]-2-pyrimidinyl}amino)phenyl]carbonyl}amino)-ethyl]amino}carbonyl)-2-(6-hydroxy-3-oxo-3H-xanthen-9-yl)benzoic acid from His6-MBP-TEV-full length human TNNI3K expressed in Baculovirus expression system after 60 mins by fluorescence polarization assay
T1 sequence (Q59H18 whole entry): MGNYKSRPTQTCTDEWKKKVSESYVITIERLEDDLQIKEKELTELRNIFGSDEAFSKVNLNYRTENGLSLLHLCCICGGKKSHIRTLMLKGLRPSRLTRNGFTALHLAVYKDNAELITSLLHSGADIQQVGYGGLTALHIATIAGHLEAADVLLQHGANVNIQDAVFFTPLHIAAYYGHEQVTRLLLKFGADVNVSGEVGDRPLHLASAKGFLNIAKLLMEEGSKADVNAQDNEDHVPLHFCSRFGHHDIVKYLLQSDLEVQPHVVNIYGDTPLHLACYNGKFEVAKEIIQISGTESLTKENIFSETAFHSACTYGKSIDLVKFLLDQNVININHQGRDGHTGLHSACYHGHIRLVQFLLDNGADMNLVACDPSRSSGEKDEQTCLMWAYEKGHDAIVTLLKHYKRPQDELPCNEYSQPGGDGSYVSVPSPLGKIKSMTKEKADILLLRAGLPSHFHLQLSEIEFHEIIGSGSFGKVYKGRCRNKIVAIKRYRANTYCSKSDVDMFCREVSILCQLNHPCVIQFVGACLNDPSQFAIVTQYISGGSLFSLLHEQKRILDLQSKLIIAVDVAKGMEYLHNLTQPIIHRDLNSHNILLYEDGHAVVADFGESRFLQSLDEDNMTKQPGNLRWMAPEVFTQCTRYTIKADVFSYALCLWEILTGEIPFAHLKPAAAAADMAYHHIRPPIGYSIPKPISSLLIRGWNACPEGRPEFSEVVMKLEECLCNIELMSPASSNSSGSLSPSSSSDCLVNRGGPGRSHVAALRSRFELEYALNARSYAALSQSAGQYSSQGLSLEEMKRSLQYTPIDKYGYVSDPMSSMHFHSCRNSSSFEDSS

[3] = target: T1, Serine/threonine-protein kinase TNNI3K; assay: Inhibition of human myc-tagged TNNI3K autophosphorylation overexpressed in HEKMSRII cells preincubated for 30 mins followed by pervanadate solution addition measured after 20 mins by DELFIA; assay type: cell-based
[4] = Volume of distribution at steady state in Sprague-Dawley rat by LC/MS/MS analysis; assay type: ADME, organism-based; conditions: in vivo, read-out: Vdss
[5] = Oral bioavailability in Sprague-Dawley rat by LC/MS/MS analysis; assay type: ADME, organism-based; conditions: in vivo
[6] = Plasma clearance in Sprague-Dawley rat at 1 mg/kg, iv by LC/MS/MS analysis; assay type: ADME, organism-based
[7] = Aqueous solubility of the compound; assay type: physicochemical
[8] = target: T1, Serine/threonine-protein kinase TNNI3K; assay: Binding affinity to TNNI3K (unknown origin)

Structure (SMILES)	IC50 [1] [µM]	AUC/dose (Rattus norvegicus) [kg·h/L]	IC50 [2] [µM]	further results
CNS(=O)(=O)c1cccc(Nc2ncnc3[nH]c(Br)cc23)c1	0.016	0.26	0.05	–
CNS(=O)(=O)c1cccc(Nc2ncnc3[nH]cc(-c4ccc(OC)cc4)c23)c1	0.004	0.06	0.05	–
CNS(=O)(=O)c1cccc(Nc2ncnc3[nH]c4ccccc4c23)c1	0.04	0.03	0.1	–
CNS(=O)(=O)c1cccc(Nc2ncnc3[nH]cc(C(C)C)c23)c1	0.079	0.06	0.126	–
CNS(=O)(=O)c1cccc(Nc2ncnc3c2CC(=O)N3)c1	–	–	0.4	–
CNS(=O)(=O)c1ccc(C)c(Nc2ncnc3[nH]cnc23)c1	–	–	0.5	–
CNS(=O)(=O)c1cccc(Nc2ncnc3[nH]cc(CC(C)C)c23)c1	0.04	–	0.126	–
CCS(=O)(=O)c1cccc(Nc2ncnc3[nH]cnc23)c1	–	–	6.3	–
CNS(=O)(=O)c1cccc(Nc2ncnc3c2ncn3C)c1	–	–	> 25	–
CNS(=O)(=O)c1ccc(N(C)C)c(Nc2ncnc3[nH]c(Br)cc23)c1	0.0063	0.14	0.04	IC50 [3]: 0.04 µM
CNS(=O)(=O)c1cccc(Nc2ncnc3[nH]ccc23)c1	0.05	0.08	0.08	Vd [4]: 1.4 L/kg; bioavailability [5]: 34%; clearance [6]: 4.08 L/h/kg; solubility [7]: 50 µM (≈ 15.2 µg/mL)
CNS(=O)(=O)c1cccc(Nc2ncnc3[nH]c(-c4ccc(C)cc4)cc23)c1	0.001	–	0.013	–
CNS(=O)(=O)c1ccc(N(C)C)c(Nc2ncnc3[nH]cc(Br)c23)c1	0.0002	0.04	< 0.01	IC50 [3]: 0.0007 µM
CNS(=O)(=O)c1ccc(N2CCOCC2)c(Nc2ncnc3[nH]cc(C)c23)c1	0.0013	–	0.013	IC50 [3]: 0.0079 µM
CNS(=O)(=O)c1cccc(Nc2ncnc3[nH]cc(-c4ccc(Cl)cc4)c23)c1	0.004	0.2	0.1	clearance [6]: 3.9 L/h/kg
CNS(=O)(=O)c1cccc(Nc2ncnc3[nH]cc(-c4ccccc4)c23)c1	0.004	0.05	0.04	clearance [6]: 5.58 L/h/kg
CNS(=O)(=O)c1cccc(Nc2ncnc3c2ccn3C)c1	–	–	> 25	–
CNS(=O)(=O)c1cccc(Nc2ncnc3[nH]cnc23)c1	0.032	0	0.5	Kd [8]: 0.111 µM
CNS(=O)(=O)c1cccc(Nc2ccnc3[nH]ccc23)c1	–	–	8	–

Structure (SMILES)	IC50 [1] [µM]	AUC/dose (Rattus norvegicus) [kg·h/L]	IC50 [2] [µM]	further results
CNS(=O)(=O)c1ccc(N(C)C)c(Nc2ncnc3[nH]cc(C)c23)c1	0.0005	–	< 0.01	IC50 [3]: 0.0016 µM
CNS(=O)(=O)c1ccc(N2CCOCC2)c(Nc2ncnc3[nH]ccc23)c1	0.008	0.15	0.04	clearance [6]: 2.34 L/h/kg; IC50 [3]: 0.1 µM
CNS(=O)(=O)c1cccc(Nc2ncnc3[nH]cc(-c4ccncc4)c23)c1	0.032	0	0.1	–
CN(C)S(=O)(=O)c1cccc(Nc2ncnc3[nH]cnc23)c1	–	–	8	–
CNS(=O)(=O)c1cccc(Nc2ncnc3[nH]c(-c4ccccc4C)cc23)c1	0.006	–	0.013	–
CNS(=O)(=O)c1cccc(N(C)c2ncnc3[nH]ccc23)c1	–	–	5	–
CNS(=O)(=O)c1cc(Nc2ncnc3[nH]cnc23)ccc1C	–	–	13	–
CNS(=O)(=O)c1cccc(Nc2nc(N)nc3[nH]cnc23)c1	–	–	8	–
CNS(=O)(=O)c1cccc(Nc2ncnc3[nH]ncc23)c1	–	–	0.05	bioavailability [5]: 5%; clearance [6]: 4.32 L/h/kg
CNS(=O)(=O)c1ccc(N2CCOCC2)c(Nc2ncnc3[nH]c(-c4cccc(C(F)(F)F)c4)cc23)c1	0.0013	–	0.016	IC50 [3]: 0.01 µM
CCNS(=O)(=O)c1cccc(Nc2ncnc3[nH]cnc23)c1	–	–	2	–
O=S(=O)(NO)c1cccc(Nc2ncnc3[nH]cnc23)c1	–	–	20	–
CNS(=O)(=O)c1cccc(Nc2nc(Cl)nc3[nH]cnc23)c1	–	–	16	–
CNc1ccc(S(=O)(=O)NC)cc1Nc1ncnc2[nH]ccc12	1	–	6.3	–
CNS(=O)(=O)c1cccc(Nc2ncnc3[nH]cc(Cl)c23)c1	0.013	0.39	0.032	Vd [4]: 0.45 L/kg; clearance [6]: 1.2 L/h/kg
NS(=O)(=O)c1cccc(Nc2ncnc3[nH]cnc23)c1	–	–	40	–
CNS(=O)(=O)c1cccc(Nc2ncnc3[nH]cc(-c4ccccc4Cl)c23)c1	0.01	–	0.04	–
CNS(=O)(=O)c1cccc(Oc2ncnc3[nH]ccc23)c1	–	–	16	–
CNS(=O)(=O)c1cccc(Nc2ncnc3[nH]cc(-c4ccc(C(=O)O)cc4)c23)c1	0.016	0	0.1	–

Structure (SMILES)	IC50 [1] [µM]	AUC/dose (Rattus norvegicus) [kg·h/L]	IC50 [2] [µM]	further results
CNS(=O)(=O)c1cccc(Nc2nc(F)nc3[nH]cnc23)c1	–	–	3.2	–
CNS(=O)(=O)c1cccc(Nc2ncnc3[nH]c(-c4cccc(C(F)(F)F)c4)cc23)c1	0.006	0.14	0.063	–
CNS(=O)(=O)c1cccc(Nc2ncnc3[nH]cc(-c4ccc(CN)cc4)c23)c1	0.006	0	0.032	–
CNS(=O)(=O)c1cccc(Nc2ncnc3[nH]c(-c4ccccc4)cc23)c1	0.001	0.01	0.025	–
CNS(=O)(=O)c1ccc(C)c(Nc2ncnc3[nH]ccc23)c1	–	–	0.63	–
CNS(=O)(=O)c1cccc(Nc2ncnc3[nH]cc(Br)c23)c1	0.005	0.55	0.032	Vd [4]: 0.63 L/kg; clearance [6]: 1.38 L/h/kg
CNS(=O)(=O)c1cccc(Nc2ncnc3[nH]cc(-c4cccc(Cl)c4)c23)c1	0.001	–	0.063	–
CNS(=O)(=O)c1cccc(Nc2ncnc3[nH]c(C(=O)O)cc23)c1	0.04	–	0.16	–
CNS(=O)(=O)c1cccc(Nc2ncnc3[nH]c(-c4ccncc4)cc23)c1	0.001	0	0.02	–
CNS(=O)(=O)c1ccc(Cl)c(Nc2ncnc3[nH]ccc23)c1	0.032	–	0.02	–
CNS(=O)(=O)c1cccc(Nc2ncnc3[nH]cc(C)c23)c1	0.063	0.18	0.04	–
CNS(=O)(=O)c1ccc(N(C)C)c(Nc2ncnc3[nH]ccc23)c1	0.006	0.59	0.05	bioavailability [5]: 100%; clearance [6]: 1.8 L/h/kg; solubility [7]: 330 µM (≈ 114 µg/mL); IC50 [3]: 0.05 µM
CNS(=O)(=O)c1ccc(N2CCOCC2)c(Nc2ncnc3[nH]cc(Br)c23)c1	0.0005	0.32	< 0.01	IC50 [3]: 0.0063 µM
CNS(=O)(=O)c1ccc(N(C)C)c(Nc2ncnc3[nH]c(-c4cccc(C(F)(F)F)c4)cc23)c1	0.0006	–	0.013	IC50 [3]: 0.016 µM
CNS(=O)(=O)c1cccc(Nc2ncnc3[nH]cc(F)c23)c1	0.079	0.28	0.126	–
CNS(=O)(=O)c1cncc(Nc2ncnc3[nH]ccc23)c1	–	–	0.25	–
CNS(=O)(=O)c1cccc(Nc2ncnc3[nH]c(-c4ccc(O)cc4)cc23)c1	0.001	–	0.013	–
CNS(=O)(=O)c1ccc(N2CCOCC2)c(Nc2ncnc3[nH]c(Br)cc23)c1	0.008	0.09	0.126	IC50 [3]: 0.398 µM
CNS(=O)(=O)c1cccc(Nc2ncnc3[nH]c(-c4cccc(C)c4)cc23)c1	0.001	0.01	0.013	–
